Measured values as given in US20050233435A1, “Plasmodium axenic liver stages as a noninfectious whole organism malaria vaccine” (priority 2003, published 2005).

Tested on: P. berghei sporozoites
Assay: Host cell-free transformation of sporozoites into EEFs (liver stages)
Assay type: cell-based
Details: Plasmodium berghei; lactacystin 10 μM in the culture medium
Experimental: Transformation medium and quantification of transformation: Sporozoites were suspended in DMEM medium (BioWhittaker) containing 2 mM of L-glutamine, 4.5 g/l glucose and supplemented with 10% Fetal Bovine Serum (FBS; HyClone) and 500 U/ml penicillin/streptomycin and 1.25 μl/ml fungizon (Sigma). For the generation of Plasmodium axenic liver stages, 5×10^4 sporozoites were inoculated per well of a 8 well chamber slide (Labtek) and maintained at 37° C. in 5% CO2. Initially, slides were coated with Matrigel (Becton Dickinson) at density of 100 μg/cm^2 to improve the development. Matrigel improved attachment of the parasites to the slide, but was not essential for transformation.
To determine transformation rates for various conditions and slides, the host cell-free cultures of GFP-expressing P. berghei sporozoites were examined by fluorescence microscopy at 400× magnification using an Eclipse TE 300 fluorescence microscope (Nikon, Inc.) using a green filter (excitation wavelength 495 nm/emission wavelength 519 nm). EEFs were scored as completely transformed only when they appeared completely spherical with no sporozoite remnants visible. Each count was performed in triplicate on three independent experiments done with sporozoites isolated from different batches of infected mosquitoes.

CC(=O)N[C@@H](CSC(=O)[C@]1([C@@H](O)C(C)C)NC(=O)[C@H](C)[C@@H]1O)C(=O)O [lactacystin]
inhibition at 10 µM: ~70%
